In ChEMBL document CHEMBL4673372, “1,2,3-triazole-thiazole hybrids: Synthesis, in vitro antimicrobial activity and antibiofilm studies” (Bioorg Med Chem Lett, 2021):
Values after ≈ are worked out from the molar mass of the structure shown.

Columns and labels:
Staphylococcus aureus [1] = experiment: Inhibition of biofilm formation in Staphylococcus aureus MLS16 MTCC 2940 incubated for 24 hrs by crystal violet staining based microtiter plate method; assay type: functional, organism-based
Raoultella planticola [2] = experiment: Inhibition of biofilm formation in Klebsiella planticola MTCC 530 incubated for 24 hrs by crystal violet staining based microtiter plate method; assay type: functional, organism-based; details: Klebsiella planticola, MTCC 530, 24 h; read-out: IC50
Bacillus subtilis [3] = experiment: Inhibition of biofilm formation in Bacillus subtilis MTCC 121 incubated for 24 hrs by crystal violet staining based microtiter plate method; assay type: functional, organism-based; details: Bacillus subtilis, MTCC 121, 24 h; read-out: IC50
THP-1 [4] = experiment: Cytotoxicity against human THP-1 cells assessed as reduction in cell viability at 200 uM by MTT assay; assay type: cell-based; details: thp-1, 200 µM
[5] = Selectivity index, ratio of CC50 for human THP-1 cells to MIC for Staphylococcus aureus MTCC 96; assay type: toxicity
[Candida] aaseri = Antifungal activity against Candida aaseri MTCC 1962; assay type: functional; details: Yamadazyma aaseri
Candida albicans [6] = experiment: Antifungal activity against Candida albicans MTCC 3958; assay type: functional
Micrococcus luteus [7] = experiment: Antibacterial activity against Micrococcus luteus MTCC 2470 assessed as inhibition of bacterial growth by microtiter broth dilution method; assay type: functional
Candida albicans [8] = experiment: Fungicidal activity against Candida albicans MTCC 183; assay type: functional
Staphylococcus aureus [9] = experiment: Antibacterial activity against Staphylococcus aureus MLS16 MTCC 2940 assessed as inhibition of bacterial growth by microtiter broth dilution method; assay type: functional
Staphylococcus aureus [10] = experiment: Inhibition of biofilm formation in Staphylococcus aureus […] incubated for 24 hrs by crystal violet staining based microtiter plate method; assay type: functional, organism-based
Pseudomonas aeruginosa [11] = experiment: Inhibition of biofilm formation in Pseudomonas aeruginosa MTCC 2453 incubated for 24 hrs by crystal violet staining based microtiter plate method; assay type: functional, organism-based; details: Pseudomonas aeruginosa, MTCC 2453, 24 h; read-out: IC50
Staphylococcus aureus [12] = experiment: Antibacterial activity against Staphylococcus aureus MTCC 96 assessed as inhibition of bacterial growth by microtiter broth dilution method; assay type: functional
Candida albicans [13] = experiment: Fungicidal activity against Candida albicans MTCC 854; assay type: functional
Pichia sporocuriosa [14] = experiment: Antifungal activity against Issatchenkia hanoiensis MTCC 4755; assay type: functional
Pseudomonas aeruginosa [15] = experiment: Bactericidal activity against Pseudomonas aeruginosa MTCC 2453; assay type: functional
Raoultella planticola [16] = experiment: Bactericidal activity against Klebsiella planticola MTCC 530; assay type: functional
Candida albicans [17] = experiment: Antifungal activity against Candida albicans MTCC 183; assay type: functional
Bacillus subtilis [18] = experiment: Antibacterial activity against Bacillus subtilis MTCC 121 assessed as inhibition of bacterial growth by microtiter broth dilution method; assay type: functional
Candida albicans [19] = experiment: Antifungal activity against Candida albicans MTCC 1637; assay type: functional
Escherichia coli [20] = experiment: Inhibition of biofilm formation in Escherichia coli MTCC 739 incubated for 24 hrs by crystal violet staining based microtiter plate method; assay type: functional, organism-based; details: Escherichia coli, MTCC 739, 24 h; read-out: IC50
Micrococcus luteus [21] = experiment: Bactericidal activity against Micrococcus luteus MTCC 2470; assay type: functional
Candida parapsilosis = experiment: Antifungal activity against Candida parapsilosis MTCC 1745; assay type: functional; details: Lodderomyces parapsilosis
Candida albicans [22] = experiment: Antifungal activity against Candida albicans MTCC 3018; assay type: functional
Candida albicans [23] = experiment: Antifungal activity against Candida albicans MTCC 854; assay type: functional
Candida albicans [24] = experiment: Antifungal activity against Candida albicans MTCC 227; assay type: functional
Pichia kudriavzevii = experiment: Antifungal activity against Candida krusei MTCC 3020; assay type: functional
Escherichia coli [25] = experiment: Antibacterial activity against Escherichia coli MTCC 739 assessed as inhibition of bacterial growth by microtiter broth dilution method; assay type: functional
Pichia sporocuriosa [26] = experiment: Fungicidal activity against Issatchenkia hanoiensis MTCC 4755; assay type: functional
Staphylococcus aureus [27] = experiment: Bactericidal activity against Staphylococcus aureus MTCC 96; assay type: functional
THP-1 [28] = experiment: Cytotoxicity against human THP-1 cells assessed as cell damage at 200 uM by LDH assay; assay type: cell-based; details: thp-1, 200 µM
Bacillus subtilis [29] = experiment: Bactericidal activity against Bacillus subtilis MTCC 121; assay type: functional
Nakaseomyces glabratus = experiment: Antifungal activity against Candida glabrata MTCC 3019; assay type: functional
Raoultella planticola [30] = experiment: Antibacterial activity against Klebsiella planticola MTCC 530 assessed as inhibition of bacterial growth by microtiter broth dilution method; assay type: functional
[31] = Cytotoxicity against human THP-1 cells; assay type: cell-based
Candida albicans [32] = experiment: Antifungal activity against Candida albicans MTCC 4748; assay type: functional
Micrococcus luteus [33] = experiment: Inhibition of biofilm formation in Micrococcus luteus MTCC 2470 incubated for 24 hrs by crystal violet staining based microtiter plate method; assay type: functional, organism-based
Candida albicans [34] = experiment: Inhibition of biofilm formation in Candida albicans MTCC 3017 incubated for 24 hrs by crystal violet staining based microtiter plate method; assay type: functional, organism-based
Pseudomonas aeruginosa [35] = experiment: Antibacterial activity against Pseudomonas aeruginosa MTCC 2453 assessed as inhibition of bacterial growth by microtiter broth dilution method; assay type: functional
Escherichia coli [36] = experiment: Bactericidal activity against Escherichia coli MTCC 739; assay type: functional
Staphylococcus aureus [37] = experiment: Bactericidal activity against Staphylococcus aureus MLS16 MTCC 2940; assay type: functional
[38] = Candida albicans, MTCC 3017, 24 h, read-out: IC50
[39] = Staphylococcus aureus, MTCC 92, 24 h, read-out: IC50
[40] = Micrococcus luteus, MTCC 2470, 24 h, read-out: IC50

MIC ([Candida] aaseri)	MIC (Candida albicans [6])	MIC (Micrococcus luteus [7])	MIC (Staphylococcus aureus [9])	MIC (Staphylococcus aureus [12])	MIC (Bacillus subtilis [18])	MIC (Escherichia coli [25])	MIC (Pseudomonas aeruginosa [35])	Structure (SMILES)	IC50 (Raoultella planticola [2])	IC50 (Bacillus subtilis [3])	Activity (THP-1 [4])	selectivity ratio [5]	IC50 (Pseudomonas aeruginosa [11])	MBC (Pseudomonas aeruginosa [15])	MBC (Raoultella planticola [16])	IC50 (Escherichia coli [20])	MBC (Micrococcus luteus [21])	MBC (Staphylococcus aureus [27])	MBC (Bacillus subtilis [29])	MIC (Raoultella planticola [30])	further results
> 227 µM	> 227 µM	7 µM (≈ 3.85 µg/mL)	> 227 µM	14.1 µM (≈ 7.76 µg/mL)	7 µM (≈ 3.85 µg/mL)	> 227 µM	14.1 µM (≈ 7.76 µg/mL)	COc1ccc(-n2cc(COc3ccc(/C=N/Nc4nc(-c5cc6ccccc6oc5=O)cs4)cc3)nn2)cc1	35.7 µM	6.6 µM	Toxic	2.58	19.5 µM	56.6 µM (≈ 31.2 µg/mL)	28.3 µM (≈ 15.6 µg/mL)	31.3 µM	14.1 µM (≈ 7.76 µg/mL)	28.3 µM (≈ 15.6 µg/mL)	14.1 µM (≈ 7.76 µg/mL)	14.1 µM (≈ 7.76 µg/mL)	IC50 (Staphylococcus aureus [1]): Not Active; MFC (Candida albicans [8]): 56.7 µM (≈ 31.2 µg/mL); IC50 (Staphylococcus aureus [10]): Not Active; MFC (Candida albicans [13]): 14.2 µM (≈ 7.82 µg/mL); MIC (Pichia sporocuriosa [14]): 7.1 µM (≈ 3.91 µg/mL); MIC (Candida albicans [17]): 14.2 µM (≈ 7.82 µg/mL); MIC (Candida albicans [19]): > 227 µM; MIC (Candida parapsilosis): > 227 µM; MIC (Candida albicans [22]): > 227 µM; MIC (Candida albicans [23]): 7.1 µM (≈ 3.91 µg/mL); MIC (Candida albicans [24]): > 227 µM; MIC (Pichia kudriavzevii): > 227 µM; MFC (Pichia sporocuriosa [26]): 14.2 µM (≈ 7.82 µg/mL); Activity (THP-1 [28]): Toxic; MIC (Nakaseomyces glabratus): > 227 µM; CC50 [31]: 36.3 µM; MIC (Candida albicans [32]): > 227 µM; IC50 (Micrococcus luteus [33]): Not Active; IC50 (Candida albicans [34]; [38]): 63.5 µM
> 208 µM	> 208 µM	12.9 µM (≈ 7.75 µg/mL)	> 208 µM	6.5 µM (≈ 3.9 µg/mL)	6.5 µM (≈ 3.9 µg/mL)	6.5 µM (≈ 3.9 µg/mL)	12.9 µM (≈ 7.75 µg/mL)	COc1ccc(-n2cc(COc3ccc(/C=N/Nc4nc(-c5cc6c(ccc7ccccc76)oc5=O)cs4)cc3)nn2)cc1	59.7 µM	37.5 µM	Toxic	5.12	30.4 µM	51.9 µM (≈ 31.2 µg/mL)	12.9 µM (≈ 7.75 µg/mL)	127 µM	25.9 µM (≈ 15.6 µg/mL)	21.4 µM (≈ 12.9 µg/mL)	12.9 µM (≈ 7.75 µg/mL)	3.1 µM (≈ 1.86 µg/mL)	IC50 (Staphylococcus aureus [1]; Staphylococcus aureus, MLS16 MTCC 2940, 24 h, read-out: IC50): 51.1 µM; MFC (Candida albicans [8]): 51.9 µM (≈ 31.2 µg/mL); IC50 (Staphylococcus aureus [10]; [39]): 30.1 µM; MFC (Candida albicans [13]): 13 µM (≈ 7.81 µg/mL); MIC (Pichia sporocuriosa [14]): 6.5 µM (≈ 3.9 µg/mL); MIC (Candida albicans [17]): 13 µM (≈ 7.81 µg/mL); MIC (Candida albicans [19]): > 208 µM; MIC (Candida parapsilosis): > 208 µM; MIC (Candida albicans [22]): > 208 µM; MIC (Candida albicans [23]): 6.5 µM (≈ 3.9 µg/mL); MIC (Candida albicans [24]): > 208 µM; MIC (Pichia kudriavzevii): > 208 µM; MFC (Pichia sporocuriosa [26]): 13 µM (≈ 7.81 µg/mL); Activity (THP-1 [28]): Toxic; MIC (Nakaseomyces glabratus): > 208 µM; MBC (Escherichia coli [36]): 25.9 µM (≈ 15.6 µg/mL); CC50 [31]: 33.3 µM; MIC (Candida albicans [32]): > 208 µM; IC50 (Micrococcus luteus [33]; [40]): 40.2 µM; IC50 (Candida albicans [34]; [38]): 45.6 µM
–	–	2.7 µM (≈ 0.895 µg/mL)	2.7 µM (≈ 0.895 µg/mL)	2.7 µM (≈ 0.895 µg/mL)	2.7 µM (≈ 0.895 µg/mL)	2.7 µM (≈ 0.895 µg/mL)	2.7 µM (≈ 0.895 µg/mL)	O=C(O)c1cn(C2CC2)c2cc(N3CCNCC3)c(F)cc2c1=O [CIPROFLOXACIN]	0.8 µM	–	–	–	0.5 µM	2.7 µM (≈ 0.895 µg/mL)	2.7 µM (≈ 0.895 µg/mL)	0.6 µM	2.7 µM (≈ 0.895 µg/mL)	2.7 µM (≈ 0.895 µg/mL)	2.7 µM (≈ 0.895 µg/mL)	2.7 µM (≈ 0.895 µg/mL)	MBC (Escherichia coli [36]): 2.7 µM (≈ 0.895 µg/mL); IC50 (Candida albicans [34]): Not Active; MBC (Staphylococcus aureus [37]): 2.7 µM (≈ 0.895 µg/mL)
> 215 µM	> 215 µM	3.71 µM (≈ 2.15 µg/mL)	3.71 µM (≈ 2.15 µg/mL)	3.71 µM (≈ 2.15 µg/mL)	3.71 µM (≈ 2.15 µg/mL)	6.7 µM (≈ 3.89 µg/mL)	13.4 µM (≈ 7.78 µg/mL)	COc1ccc(-n2cc(COc3ccc(/C=N/Nc4nc(-c5cc6cccc(OC)c6oc5=O)cs4)cc3)nn2)cc1	40.2 µM	16.6 µM	Toxic	9.28	47.3 µM	28.8 µM (≈ 16.7 µg/mL)	6.7 µM (≈ 3.89 µg/mL)	68 µM	13.4 µM (≈ 7.78 µg/mL)	13.4 µM (≈ 7.78 µg/mL)	13.4 µM (≈ 7.78 µg/mL)	3.2 µM (≈ 1.86 µg/mL)	IC50 (Staphylococcus aureus [1]): Not Active; MFC (Candida albicans [8]): 26.9 µM (≈ 15.6 µg/mL); IC50 (Staphylococcus aureus [10]; [39]): 13.5 µM; MIC (Pichia sporocuriosa [14]): 6.7 µM (≈ 3.89 µg/mL); MIC (Candida albicans [17]): 13.4 µM (≈ 7.78 µg/mL); MIC (Candida albicans [19]): > 215 µM; MIC (Candida parapsilosis): > 215 µM; MIC (Candida albicans [22]): > 215 µM; MIC (Candida albicans [23]): > 215 µM; MIC (Candida albicans [24]): > 215 µM; MIC (Pichia kudriavzevii): > 215 µM; MFC (Pichia sporocuriosa [26]): 13.4 µM (≈ 7.78 µg/mL); Activity (THP-1 [28]): Toxic; MIC (Nakaseomyces glabratus): > 215 µM; MBC (Escherichia coli [36]): 6.7 µM (≈ 3.89 µg/mL); CC50 [31]: 34.5 µM; MIC (Candida albicans [32]): > 215 µM; IC50 (Micrococcus luteus [33]; [40]): 155 µM; IC50 (Candida albicans [34]; [38]): 35.6 µM; MBC (Staphylococcus aureus [37]): 13.4 µM (≈ 7.78 µg/mL)
